Experimental data published in patent publication US5079261A, “Use of lipoxin A4 and its derivatives as antagonists for slow-reacting substances of anaphylaxis” (Brigham and Women's Hospital, priority 1989, dated 1992).
Entries after “also recorded” stand apart in the source; their conditions may differ.

Experiments:
[1] = biological target: T1, mesangial cell LTD4 receptor (Rattus norvegicus, UniProt Q924T8); details: even at a 1000-fold excess concentration
T1 sequence (Q924T8 1-339): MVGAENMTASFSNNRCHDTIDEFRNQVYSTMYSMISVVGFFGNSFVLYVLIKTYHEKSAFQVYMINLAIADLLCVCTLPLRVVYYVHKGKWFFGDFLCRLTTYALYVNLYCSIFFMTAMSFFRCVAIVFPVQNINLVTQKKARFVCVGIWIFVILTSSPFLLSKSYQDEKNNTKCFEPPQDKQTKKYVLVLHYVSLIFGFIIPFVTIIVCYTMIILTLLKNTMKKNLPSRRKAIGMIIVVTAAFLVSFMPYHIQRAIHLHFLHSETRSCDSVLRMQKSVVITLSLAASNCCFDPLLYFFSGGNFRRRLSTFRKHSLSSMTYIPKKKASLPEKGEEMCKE
Protocol: Mesangial Cell Culture: Rat mesangial cells were isolated and cultured as described previously (Harris, R. C., et al., J. Clin. Invest. 82:1028-1039(1988). Briefly, kidneys were exicesed from two young Sprague-Dawly rats under sterile conditions, and the cortices removed, minced, and washed several times in Hank's Balanced Salt Solution, containing 10 mM HEPES pH 7.4, amphotericin (0.25 μg/ml), and gentamicin (50 μg/ml). The tissue was then passed through consecutive sterilized stainless mesh filters with pore sizes of 212 μm, 150 μm, and then onto the final mesh of 75 μm. The isolated glomeruli were harvested from the surface of the 75 μm. The isolated glomeruli were harvested from the surface of the 75 μm filter and washed twisce with the Hank's Media. The glomeruli were suspended in RPMI 1640 Medium with 15% Fetal Bovine Serum (Givco), penicillin (100 μ/ml) and streptomycin (100 μg/ml) (Gibco), plated into 100 mm cell culture petri dishes, and incubated at 37° C. in a humidified atmosphere of 95% air and 5% air and 5% CO2. Mesangial cell colonies were subcultured in 60 mm culture dishes, and experiments were carried out in cells from passages 2 to 12. […] Cells were routinely grown in RPMI-1640, supplemented with 20% fetal calf serum, penicillin 100 μ/ml, and streptomycin 100 μg/ml.
Binding studies were routinely performed at 4° C. […] The cells were then dissolved with 1.0 ml of 1.0 N NaOH, neutralized with HCl, dissolved in 10 ml of Aquasol (New England Nuclear, Boston, MA), and the bound radioactivity was determined using a scintillation counter (Beckman Instruments). […] Cell density was determined by counting cells from replicate wells, using a Coulter Counter ZBi (Coulter Electronics, Inc., Hialeah, Fla.).

LTD4 receptor [2] = details: cited from earlier work
rat mesangial cells = assay: IP3 formation ([3H]-inositol labeled mesangial cells) in response to LTD4 or LXA4; type: cell-based; details: Mesangial cell, read-out: increase in [3H]-IP3 counts over controls
Excerpt: (§1) Statistical: ANOVA with Bonferroni modification for multiple pre-planned comparisons was used, within each group and between groups, to compare the changes in various whole kidney and microcirculatory indices which occurred from one period to another. In phosphoinositide generation studies, increases in [^3 H]-IP3 CPMs in agonist-treated cells were compared to vehicle-treated controls using upaired students t-test. Differences were considered significant at a p value ≤0.05. All values are reported as means ± SEM.
The isolated glomeruli were harvested from the surface of the 75 μm filter and washed twisce with the Hank's Media. […] Mesangial cell colonies were subcultured in 60 mm culture dishes, and experiments were carried out in cells from passages 2 to 12.
(§2) To label mesangial cells with [^3 H]-Inositol, cells grown to confluence in 60 mm culture dishes (10^6 cells/dish) were cultured in RPMI, supplemented with 10% dialyzed fetal calf serum and [^3 H]-inositol (1 μCi/ml) in a total incubation volume of 5 ml.
Reactions were terminated by the addition of cold 10% trichloroacetic acid (TCA), the supernatants subjected to ether extraction, and the aqueous phase titrated to neutral pH using 0.1 M Tris base. […] To ensure the reliability of the separation technique, the same methods for extraction and separation were applied to known amounts of [^3 H]-IP1, [^3 H]IP2, and [^3 H]-IP3 standards (New England Nuclear) mixed in a ratio of 3:2:1, respectively, and subjected to separation by HPLC.

[3] = Renal function in vivo in anesthetized rats (AP, Hct, RPF, GFR) during intrarenal arterial infusion; set-up: species or system male Munich-Wistar rats; details: for Mean percent fall in RPF / Mean percent fall in GFR: without LXA4
Excerpt: as §1
Inulin and para-aminohippurate (PAH) clearances Were used to measure GFR and effective RPF. A needle was placed at the take-off of the left renal artery through which a maintenance infusion of 0.9% NaCl at a rate of 0.05 ml/min was initiated. […] Two experimental groups
Group I (n=14). First period: Clearances were performed during vehicle infusion.
Group II (n=12). First period: Clearances were performed during vehicle infusion.

[4] = intra-renal arterial LTD4 1 μg/kg/min; cited from earlier work
renal arterioles = details: rat, in vivo; cited from earlier work
mesangial cells = details: cited from earlier work
HL-60 myeloid cells = details: DMSO-differentiated HL-60 cells; cited from earlier work
LTD4 receptor [5] = assay: Inhibition of LTD4-induced IP3 formation in mesangial cells; type: cell-based, rat
Protocol: Mesangial Cell Culture: Rat mesangial cells were isolated and cultured as described previously (Harris, R. C., et al., J. Clin. Invest. 82:1028-1039(1988). Briefly, kidneys were exicesed from two young Sprague-Dawly rats under sterile conditions, and the cortices removed, minced, and washed several times in Hank's Balanced Salt Solution, containing 10 mM HEPES pH 7.4, amphotericin (0.25 μg/ml), and gentamicin (50 μg/ml). The tissue was then passed through consecutive sterilized stainless mesh filters with pore sizes of 212 μm, 150 μm, and then onto the final mesh of 75 μm. The isolated glomeruli were harvested from the surface of the 75 μm. The isolated glomeruli were harvested from the surface of the 75 μm filter and washed twisce with the Hank's Media. The glomeruli were suspended in RPMI 1640 Medium with 15% Fetal Bovine Serum (Givco), penicillin (100 μ/ml) and streptomycin (100 μg/ml) (Gibco), plated into 100 mm cell culture petri dishes, and incubated at 37° C. in a humidified atmosphere of 95% air and […] 5% CO2. Mesangial cell colonies were subcultured in 60 mm culture dishes, and experiments were carried out in cells from passages 2 to 12. The criteria used to establish the identify of mesangial cells were as described previously (Harris, R. C., et al., J. Clin. Invest. 82:1028-1039 (1988)). Cells were routinely grown in RPMI-1640, supplemented with 20% fetal calf serum, penicillin 100 μ/ml, and streptomycin 100 μg/ml. […] All eicosanoids were stored under argon at -70° C. in methanol and their purity and quantity verified periodically by ultraviolet scanning and high pressure liquid chromatography (Serhan, C. N. et al., J. Biol. Chem. 261:16340 (1986)).
as §2
Reactions were terminated by the addition of cold 10% trichloroacetic acid (TCA), the supernatants subjected to ether extraction, and the aqueous phase titrated to neutral pH using 0.1 M Tris base. [^3 H]-IP1, [^3 H]-IP2, and [^3 H]-IP3 in the aqueous phase were separated and quantitated by anion exchange column chromatography, using the method of Berridge et al. (Berridge, M. J., Biochem. J. 220:345-360 (1984)). To ensure the reliability of the separation technique, the same methods for extraction and separation were applied to known amounts of [^3 H]-IP1, [^3 H]IP2, and [^3 H]-IP3 standards (New England Nuclear) mixed in a ratio of 3:2:1, respectively, and subjected to separation by HPLC. The latter was performed using established methodology described previously (Cunha-Melo, J. R., et al., J. Biol. Chem. 262:11455-11463 (1987)).

LTD4 receptor [6] = assay: Inhibition of LXA4-induced IP3 formation in mesangial cells; type: cell-based, rat
Protocol: Mesangial Cell Culture: Rat mesangial cells were isolated and cultured as described previously (Harris, R. C., et al., J. Clin. Invest. 82:1028-1039(1988). Briefly, kidneys were exicesed from two young Sprague-Dawly rats under sterile conditions, and the cortices removed, minced, and washed several times in Hank's Balanced Salt Solution, containing 10 mM HEPES pH 7.4, amphotericin (0.25 μg/ml), and gentamicin (50 μg/ml). The tissue was then passed through consecutive sterilized stainless mesh filters with pore sizes of 212 μm, 150 μm, and then onto the final mesh of 75 μm. The isolated glomeruli were harvested from the surface of the 75 μm. […] All eicosanoids were stored under argon at -70° C. in methanol and their purity and quantity verified periodically by ultraviolet scanning and high pressure liquid chromatography (Serhan, C. N. et al., J. Biol. Chem. 261:16340 (1986)). […]
Reactions were terminated by the addition of cold 10% trichloroacetic acid (TCA), the supernatants subjected to ether extraction, and the aqueous phase titrated to neutral pH using 0.1 M Tris base. [^3 H]-IP1, [^3 H]-IP2, and [^3 H]-IP3 in the aqueous phase were separated and quantitated by anion exchange column chromatography, using the method of Berridge et al. (Berridge, M. J., Biochem. J. 220:345-360 (1984)). […]

LTD4/ LTE4 receptors = details: in vivo and in vitro; cited from earlier work
[7] = biological target: T1, mesangial cell LTD4 receptor; set-up: endogenous in cells; host or cells: primary glomerular mesangial cells of young Sprague-Dawley rats, passages 2 to 12; details: other studies of the inventors; cited from earlier work
[8] = Group I, period 2, A: LTD4 0.5 μg/kg/min, n=4
[9] = Group I, period 2, B: LTD4 7 μg/kg/min, n=3
[10] = Group I, period 2, C: LTD4 14 μg/kg/min, n=3
[11] = Group I, period 2, D: LTD4 20 μg/kg/min, n=4
[12] = LTD4 7.0 μg/kg/min, p<0.05 vs baseline
[13] = LTD4 14.0 μg/kg/min, p<0.05 vs baseline
[14] = LTD4 20.0 μg/kg/min, p<0.05 vs baseline
[15] = 100-fold concentrations of SKF 104353

With CCCCC[C@H](O)/C=C/C=C\C=C\C=C\[C@H](O)[C@@H](O)CCCC(=O)O [6S-LXA4, 5S,6S,15S,trihydroxy-7,9,13-trans-11-cis-eicosatetraenoic acid, reference compound] the “Competition for [3H]-LTD4 at excess concentration” value [1] was “filed to compete for [^3 H]-LTD4”.
In the case of CCCc1c(OCC(O)COc2ccc3c(=O)cc(C(=O)O)oc3c2CCC)ccc(C(C)=O)c1O (stereo not drawn) [FPL-55712], the Duration of action (LTD4 receptor [2]) is listed as “short-acting”.
With CCCCC/C=C\C\C=C/C=C/C=C/[C@@H](SC[C@H](N)C(=O)NCC(=O)O)[C@@H](O)CCCC(=O)O [LTD4, reference compound] the activation at 0.01 µM (rat mesangial cells) was 146 ± 20%, the activation at 0.05 µM (rat mesangial cells) was 106 ± 13% and the “GFR and RPF change (in words)” value ([3]; Group I, LTD4 0.5-20.0 μg/kg/min) was “dose-dependent reductions”. It also gave an AP [3, 8] of 127 ± 9 mmHg, a GFR [3, 8] of 0.81 ± 0.11 mL/min and a Hct [3, 8] of 48.3 ± 1.2 Vol./dl. It also gave an RPF [3, 8] of 3.41 ± 0.50 mL/min, an AP [3, 9] of 124 ± 6 mmHg and a GFR [3, 9] of 0.84 ± 0.15 mL/min. For the same compound, the Hct [3, 9] was 53.0 ± 1.5 Vol./dl, the RPF [3, 9] was 2.76 ± 0.59 mL/min and the AP [3, 10] was 148 ± 5 mmHg. It also gave a GFR [3, 10] of 0.32 ± 0.10 mL/min, a Hct [3, 10] of 59.2 ± 2.2 Vol./dl and an RPF [3, 10] of 1.51 ± 0.44 mL/min. For the same compound, the AP [3, 11] was 128 ± 4 mmHg, the GFR [3, 11] was 0.34 ± 0.80 mL/min and the Hct [3, 11] was 55.0 ± 1.8 Vol./dl. The RPF [3, 11] was 1.20 ± 0.15 mL/min, the “Mean percent fall in RPF” value ([3]; LTD4 0.5 μg/kg/min) was 24% and the “Mean percent fall in GFR” value ([3]; LTD4 0.5 μg/kg/min, p<0.05 vs baseline) was 27%. The “Mean percent fall in GFR” value [3, 12] was 25%, the “Mean percent fall in RPF” value [3, 12] was 40% and the “Mean percent fall in GFR” value [3, 13] was 70%. For the same compound, the “Mean percent fall in RPF” value [3, 13] was 65%, the “Mean percent fall in GFR” value [3, 14] was 73% and the “Mean percent fall in RPF” value [3, 14] was 70%. The Systemic hemodynamic alterations [4] was “elevation in systemic arterial pressure and a progressive loss of plasma volume”, the “Kf and GFR in vivo” value (renal arterioles) was “markedly reduces” and the “Contraction of mesangial cells in culture” value (mesangial cells) was “contracts mesangial cells in culture”. The “Intracellular Ca2+ concentrations” value (HL-60 myeloid cells) was “increase intracellular Ca^2+ concentrations”.
For O=C(O)CCS[C@H](c1ccccc1CCCCCCCCc1ccccc1)[C@@H](O)C(=O)O [SKF 104353], the “Inhibition of IP3 formation in response to LTD4 (FIG. 2)” value (LTD4 receptor [5]; [15]) was “complete abolition”, the “Inhibition of LTD4-induced stimulation of [3H]-IP3 formation” value (LTD4 receptor [5]; 100-fold excess over ligand, LTD4 10 and 50 nM (n=3 each)) was “total abrogation” and the “Inhibition of IP3 formation in response to LXA4 (FIG. 2)” value (LTD4 receptor [6]; [15]) was “complete abolition”. The “Inhibition of LXA4-induced IP3 formation” value (LTD4 receptor [6]; SKF 104353 100 nM (n=3)) was “abrogated; also recorded: total abrogation”, the Agonist activity (LTD4/ LTE4 receptors) was “devoid of agonist activity” and the “Inhibition of [3H]-LTD4 binding to its mesangial cell binding site” value [7] was “inhibit [^3 H]-LTD4 binding”.
